{
  "source": "patent US10980788B2",
  "about": "“Therapy for treating malignancies” (Agios Pharmaceuticals, Inc., priority 2018, dated 2021)",
  "key": {"[1]": {"assay": "Safety and tolerability of a single oral dose of 500 mg COMPOUND 1 in healthy subjects", "type": "in vivo, human", "settings": "single oral dose of 500 mg, fed and fasted conditions", "method": "Safety and tolerability were also evaluated for a single oral dose of 500 mg of COMPOUND 1.\nIncidence of adverse events and serious adverse events was assessed."}, "[2]": {"assay": "Food effect on pharmacokinetics of COMPOUND 1 in healthy subjects (phase 1, open-label, randomized, two-period crossover)", "type": "in vivo, human", "settings": "for Tmax / half-life / AUC(0-inf) / AUC(0-t) / Cmax: plasma, single oral dose 500 mg", "method": "The food effect on COMPOUND 1 PK following administration of a single oral dose of 500 mg of COMPOUND 1 in healthy subjects aged 18-55 years was evaluated in a was a phase 1, open-label, randomized, two-period crossover study.\nThe study was conducted according to the United States Food and Drug Administration (FDA) 2002 Guidance for Industry “Food-Effect Bioavailability and Fed Bioequivalence Studies”.\nTreatments A and B, each comprising a single oral dose of 500 mg of COMPOUND 1, were administered as shown in Table 1. • A (fasted): two 250 mg tablets administered after an overnight fast (approximately 10 hr). • B (fed): two 250 mg tablets administered after a standardized high-fat breakfast, consumed within 30 minutes prior to COMPOUND 1 dosing.\nThe standardized FDA high-fat content meal contains the equivalent of ˜150 protein calories, ˜250 carbohydrate calories, and ˜500-600 fat calories, and comprises two eggs fried in butter, two strips of bacon, two slices of toast with butter, four ounces of hash brown potatoes (fried with butter), and eight ounces (240 mL) of whole milk.\nOf the 30 subjects enrolled, 15 were randomized to sequence AB and 15 were randomized to sequence BA.\nBlood samples for the analysis of COMPOUND 1 concentrations were collected predose and 0.5, 1, 2, 3, 4, 6, 9, 12, 24, 48, 72, 120, 168, 240, 336, and 504 hr postdose. Plasma concentrations of COMPOUND 1 were determined using a validated liquid chromatography with tandem mass spectrometry method. PK parameters were calculated using WinNonlin (Pharsight Corporation, Version 6.2.1). Linear mixed model analysis was performed on natural logarithm (In) transformed maximum observed concentration (Cmax), area under the concentration-time curve from Hour 0 to the last measurable concentration (AUC0-t), and area under the concentration-time curve extrapolated to infinity (AUC0-∞). The analyses were performed using the SAS MIXED procedure. […] Inter-subject variability was determined using the geometric coefficient of variation percent (CV %)."}, "[3]": {"settings": "fed condition (test) versus fasted condition (reference), 500 mg, n = 27"}, "[4]": {"settings": "high-fat meal compared with fasted condition, 500 mg single oral dose"}, "[5]": {"settings": "human, po, 500 mg, fasted, n = 29, geometric mean"}, "[6]": {"settings": "human, po, 500 mg, fed (high-fat meal), n = 27, geometric mean"}},
  "note": "Read-outs that look alike come from different tables or passages of the source.",
  "data": [
    {"smiles": "N#Cc1ccnc(N2C(=O)CC[C@H]2C(=O)N(c2cncc(F)c2)[C@H](C(=O)NC2CC(F)(F)C2)c2ccccc2Cl)c1", "note": "[COMPOUND 1, (S)—N—((S)-1-(2-chlorophenyl)-2-((3,3-difluorocyclobutyl)amino)-2-oxoethyl)-1-(4-cyanopyridin-2-yl)-N-(5-fluoropyridin-3-yl)-5-oxopyrrolidine-2-carboxamide]", "values": [
      {"measurement": "Safety and tolerability", "setting": "[1]", "result": "safe and well tolerated"},
      {"measurement": "Geometric mean ratio (%) AUC0-t", "setting": "[2]; [3]", "result": 125.6, "unit": "%"},
      {"measurement": "Geometric mean ratio (%) AUC0-∞", "setting": "[2]; [3]", "result": 124.3, "unit": "%"},
      {"measurement": "Geometric mean ratio (%) Cmax", "setting": "[2]; [3]", "result": 197.8, "unit": "%"},
      {"measurement": "Increase in extent of exposure as assessed by AUC0-t", "setting": "[2]; [4]", "result": 25.6, "unit": "%"},
      {"measurement": "Increase in extent of exposure as assessed by AUC0-∞", "setting": "[2]; [4]", "result": 24.3, "unit": "%"},
      {"measurement": "Increase in mean Cmax", "setting": "[2]; [4]", "result": "~2", "unit": "fold"},
      {"measurement": "Increase in AUC", "setting": "[2]; high-fat meal prior to dosing compared with fasted, 500 mg single oral dose", "result": "~25", "unit": "%"},
      {"measurement": "Tmax", "setting": "[2]; human, po, 500 mg, fasted, n = 29, median, read-out: Tmax", "result": 3, "unit": "h"},
      {"measurement": "Tmax", "setting": "[2]; human, po, 500 mg, fed (high-fat meal), n = 27, median, read-out: Tmax", "result": 3, "unit": "h"},
      {"measurement": "half-life", "setting": "[2]; human, po, 500 mg, fasted, n = 29, arithmetic mean", "result": 55.4, "unit": "h"},
      {"measurement": "AUC(0-inf)", "setting": "[2]; [5]", "result": 143, "unit": "µg·h/mL"},
      {"measurement": "AUC(0-t)", "setting": "[2]; [5]", "result": 136, "unit": "µg·h/mL"},
      {"measurement": "Cmax", "setting": "[2]; [5]", "result": 2270, "unit": "ng/mL"},
      {"measurement": "half-life", "setting": "[2]; human, po, 500 mg, fed (high-fat meal), n = 27, arithmetic mean", "result": 53.2, "unit": "h"},
      {"measurement": "AUC(0-inf)", "setting": "[2]; [6]", "result": 174, "unit": "µg·h/mL"},
      {"measurement": "AUC(0-t)", "setting": "[2]; [6]", "result": 166, "unit": "µg·h/mL"},
      {"measurement": "Cmax", "setting": "[2]; [6]", "result": 4490, "unit": "ng/mL"},
      {"measurement": "Tmax", "setting": "[2]; fasted, n = 29, median", "result": 3.03, "unit": "h"}
    ]}
  ]
}
